Broadly, the IC50 is the concentration at which inhibition is half-maximal.

This note sets out measurements from patent publication US20090030015A1, “NOVEL MULTI-CYCLIC COMPOUNDS” (REVOTAR BIOPHARMACEUTICALS AG, priority 2005, published 2009).

The target of assay [1] is T1, human E-Selectin-IgG-chimera (Homo sapiens, UniProt P16581).
T1 construct: fused on or other part: human IgG Fc part, captured on the plate by goat anti human Fc antibody; a tag, no second protein
T1 sequence (P16581 22-175 limits assumed): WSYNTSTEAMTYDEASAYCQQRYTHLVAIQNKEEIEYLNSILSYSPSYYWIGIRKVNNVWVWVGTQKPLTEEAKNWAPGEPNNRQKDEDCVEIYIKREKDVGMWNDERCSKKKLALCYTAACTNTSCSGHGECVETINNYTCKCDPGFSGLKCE
As to the kind of experiment: Sialyl Lewis X Tyrosine Sulfate Assay (sLex TSA), E-selectin. It is filed as binding. To be noted: sLexTSA; for E-Selectin [% inhib.]: in vitro inhibition at 100 μM. On the procedure: (§1) Sialyl Lewis^X Tyrosine Sulfate Assay (sLe^x TSA):
(§2) Compounds of the present invention are assayed on a molecular level for their ability to inhibit the binding of P-, L-, or E-selectin chimeric molecules to sLe^x and tyrosinesulfate residues linked to a polymeric matrix as a PSGL-1 substitute. Selected IC50-values are determined.
(§3) Microtiter plates are coated overnight in carbonate buffer pH9.6 with goat anti human Fc mAB (10 μg/ml). After washing in assay buffer (25 mM 4-(2-hydroxyethyl)-1-piperazineethanesulfonic acid (HEPES), 150 mM NaCl, 1 mM CaCl2 pH7.4) and blocking (3% bovine serum albumin (BSA) in assay buffer) plates are incubated for 2 h at 37° C. with human P-Selectin-IgG-chimera (0.61 nM respectively 150 ng/mL) or human L-Selectin-IgG-chimera (0.61 nM respectively 89 ng/mL) or human E-Selectin-IgG-chimera (0.61 nM respectively 131 ng/mL). 5 μl of sLe^x-tyrosine sulfate polyacrylamide (1 mg/ml) carrying 15% sLe^x, 10% Tyrosine-sulfate and 5% biotin is complexed with 20 μl Streptavidin-Peroxidase solution (1 mg/ml) and 25 μl assay buffer without CaCl2. For use in the assay, the ligand complex is diluted 1:10000 in assay buffer and further diluted 1:1 with varying amounts of compounds in assay buffer incl. 2% DMSO. This mixture is added to the wells precoated with E- or P-selectin. After incubation for 2 h at 37° C., wells are washed for six times with in assay buffer incl. 0.005% Polyoxyethylenesorbitan monolaurate (TWEEN 20), developed for 10-15 min with 20 μl 3,3′,5,5′-tetramethylbenzidine (TMB)/H2O2 substrate solution and stopped with 20 μl 1M H2SO4. Bound sLe^x-Tyrosine sulfate ligand complex is determined by measuring optical density at 450 nm vs. 620 nm in a Fusion alpha-FP reader (sold from Packard Bioscience, Dreieich, Germany).

Assay [2] concerns the target T2, human P-Selectin-IgG-chimera (Homo sapiens, UniProt P16109).
T2 sequence (P16109 42-771 limits assumed): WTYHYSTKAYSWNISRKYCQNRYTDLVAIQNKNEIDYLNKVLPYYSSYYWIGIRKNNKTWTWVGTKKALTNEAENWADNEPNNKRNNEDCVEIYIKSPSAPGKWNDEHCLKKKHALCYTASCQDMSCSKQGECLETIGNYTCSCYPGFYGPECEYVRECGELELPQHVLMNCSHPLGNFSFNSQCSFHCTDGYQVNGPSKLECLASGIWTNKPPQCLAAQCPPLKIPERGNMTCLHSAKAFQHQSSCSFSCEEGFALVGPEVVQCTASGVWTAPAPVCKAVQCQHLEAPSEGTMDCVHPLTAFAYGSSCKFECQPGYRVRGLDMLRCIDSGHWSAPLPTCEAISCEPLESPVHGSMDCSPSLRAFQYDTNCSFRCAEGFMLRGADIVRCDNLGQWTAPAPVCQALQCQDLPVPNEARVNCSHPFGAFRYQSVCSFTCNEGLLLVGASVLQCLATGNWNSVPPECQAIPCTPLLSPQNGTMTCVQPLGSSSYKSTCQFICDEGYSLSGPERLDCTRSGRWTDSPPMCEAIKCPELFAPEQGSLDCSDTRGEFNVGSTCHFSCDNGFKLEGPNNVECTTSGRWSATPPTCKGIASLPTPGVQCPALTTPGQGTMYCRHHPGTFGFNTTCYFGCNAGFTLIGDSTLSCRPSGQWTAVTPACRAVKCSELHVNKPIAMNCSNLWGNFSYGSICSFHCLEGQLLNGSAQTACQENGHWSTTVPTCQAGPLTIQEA
As to the kind of experiment: Sialyl Lewis X Tyrosine Sulfate Assay (sLex TSA), P-selectin. It is filed as binding. To be noted: sLexTSA; for P-Selectin [% inhib.]: in vitro inhibition at 100 μM. On the procedure: as §1, §2, §3

For assay [3], the target named is T3, human L-Selectin-IgG-chimera (Homo sapiens, UniProt P14151).
T3 construct: fused on or other part: human IgG Fc part, captured on the plate by goat anti human Fc antibody; a tag, no second protein
T3 sequence (P14151 39-318 limits assumed): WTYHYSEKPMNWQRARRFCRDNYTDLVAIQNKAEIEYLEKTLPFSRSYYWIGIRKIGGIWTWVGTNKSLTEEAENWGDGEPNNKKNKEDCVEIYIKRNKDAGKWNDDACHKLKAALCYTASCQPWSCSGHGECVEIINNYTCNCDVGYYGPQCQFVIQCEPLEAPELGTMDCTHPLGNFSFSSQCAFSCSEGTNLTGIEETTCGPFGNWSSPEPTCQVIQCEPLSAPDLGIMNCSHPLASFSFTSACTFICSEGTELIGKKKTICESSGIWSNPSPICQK
The assay is described as follows: Sialyl Lewis X Tyrosine Sulfate Assay (sLex TSA), L-selectin. It is filed as binding. To be noted: sLexTSA; for L-Selectin [% inhib.]: in vitro inhibition at 100 μM. On the procedure:
as §1, §2, §3

Assay [4] relates to human E-selectin-IgG chimera. The assay is described as follows: Flow chamber assay, cell adhesion and rolling under flow conditions, E-selectin. It is filed as cell-based. To be noted: normalized ratio of %-inhibition of compound divided by %-inhibition of bimosiamose; 125 μM compound; HL-60 cells; flow shear 1 dyne/cm^2. On the procedure:
(§4) Flow Chamber Assay/Cell Adhesion and Rolling Under Flow Conditions
(§5) To assess the capability of compounds to inhibit cell binding under dynamic conditions resembling the flow in a blood vessel, flow chamber assays addressing/testing binding of HL-60 cells/various cell lines to P-selectin, L-selectin and E-selectin chimeric molecules are performed.
(§6) Cell attachment under flow conditions is determined using a parallel flow chamber system. A 35 mm polystyrene culture dish is coated for 1 hour at room temperature with coating buffer (50 mM tris-(hydroxymethyl)aminomethane buffer (Tris), 150 mM NaCl, 2 mM CaCl2; pH 7.4) containing human E- or P-selectin-IgG chimera at concentrations of 2.5 μg/ml or 10 μg/ml, respectively. After removal of the coating solution non specific binding sites are blocked for an additional hour with 1% BSA in coating buffer at room temperature. After washing with assay buffer (“Roswell Park Memorial Institute 1640” (RPMI 1640)+10 mM HEPES) the dish is fitted into a parallel plate laminar flow chamber (sold from Glycotech, Rockville, Md.) and mounted on an inverted phase-contrast microscope (sold from Olympus, Hamburg, Germany) equipped with a CCD camera (JVC) that is connected to a PC. Employing a peristaltic pump (sold from Ismatec, Wertheim-Mondfeld, Germany) the re-circulating system is equilibrated with assay buffer containing 125 μM compound or vehicle control (DMSO). Cells (1 million/ml) are added to the chamber and allowed to distribute for 2 minutes at a high flow rate. The flow rate is then decreased resulting in a calculated flow shear of 1 dyne/cm^2. Video sequences of 10 low power fields are digitally recorded after 5 minutes continuous flow. The percentage of inhibition is calculated from the mean number of cells per field that attached to the coated dish surface in the presence versus absence of compound […].

The test system of assay [5] is human P-selectin-IgG chimera. As to the kind of experiment: Flow chamber assay, cell adhesion and rolling under flow conditions, P-selectin. It is filed as cell-based. To be noted: normalized ratio of %-inhibition of compound divided by %-inhibition of bimosiamose; 125 μM compound; HL-60 cells; flow shear 1 dyne/cm^2. On the procedure: as §4, §5, §6

Bounds are passed on as bounds.

`COc1ccc(CC(=O)Nc2ccc(-c3cc(C(=O)O)c(C)o3)cc2)c(OC)c1` [Compound 28, 5-{4-[2-(2,4-Dimethoxy-phenyl)-acetylamino]-phenyl}-2-methyl-furan-3-carboxylic acid]: the half-inhibitory concentration (IC50) came out at 201 µM in assay [1], 238 µM in assay [2] and 319 µM in assay [3]. In assay [4], the “E-Selectin [Ratio]” value is 0.99 Ratio. Also, in assay [5], the “P-Selectin [Ratio]” value is listed as “n.s”.
On to `COc1cc(CC(=O)Nc2ccc(-c3cc(C(=O)O)c(C)o3)cc2)cc(OC)c1` [Compound 30, 5-{4-[2-(3,5-Dimethoxy-phenyl)-acetylamino]-phenyl}-2-methyl-furan-3-carboxylic acid], for which the IC50 in assay [1] was more than 500 µM; in assay [2] it was 133 µM; in assay [3] it was 376 µM. In addition, the “E-Selectin [Ratio]” value in assay [4] was 1.03 Ratio. In assay [5], the “P-Selectin [Ratio]” value was “n.s”.
For `Cc1oc(-c2ccc(NC(=O)c3cncc(-c4ccc(O)cc4O)c3)cc2)cc1C(=O)O` [Compound 76, 5-(4-{[5-(2,4-Dihydroxy-phenyl)-pyridine-3-carbonyl]-amino}-phenyl)-2-methyl-furan-3-carboxylic acid], in that order: 480 µM, 234 µM, 278 µM, 0.61 Ratio and 1.26 Ratio.
For the compound `O=C(CCCNC(=O)c1cc(O)cc(O)c1)Nc1ccc(C(=O)O)cc1` [Compound 24, 4-[4-(3,5-Dihydroxy-benzoylamino)-butyrylamino]-benzoic acid], the “E-Selectin [% inhib.]” value in assay [1] came out at 35.9 % inhib. In addition, in assay [2], the “P-Selectin [% inhib.]” value amounted to 0.5 % inhib. In addition, the “L-Selectin [% inhib.]” value in assay [3] is 5.9 % inhib.
For `O=C(O)CN1CCN(C(=O)CCCNC(=O)c2cc(O)cc(O)c2)CC1` [Compound 23, {4-[4-(3,5-Dihydroxy-benzoylamino)-butyryl]-piperazin-1-yl}-acetic acid], in that order: 10.5 % inhib, 18.9 % inhib and 11.6 % inhib.
For `Cc1c(NC(=O)CCCNC(=O)c2cc(O)cc(O)c2)cccc1C(=O)O` [Compound 38], in that order: 40.9 % inhib, 9.4 % inhib and 19.3 % inhib.
Regarding `COC(=O)CCc1cccc(NC(=O)CCCNC(=O)c2cc(O)cc(O)c2)c1` [Compound 33], in assay [1], the “E-Selectin [% inhib.]” value turned out to be 38.6 % inhib. Further, the “P-Selectin [% inhib.]” value in assay [2] came out at 10.6 % inhib. For the same compound, the “L-Selectin [% inhib.]” value in assay [3] turned out to be 27.3 % inhib.
For `Cc1ccc(C(=O)O)cc1NC(=O)CCCNC(=O)c1cc(O)cc(O)c1` [Compound 36], in that order: 35.8 % inhib, 1.2 % inhib and 6.8 % inhib.
Taken in the same sequence, the figures for `O=C(CCCNC(=O)c1cc(O)cc(O)c1)Nc1cccc(C(=O)O)c1` [Compound 21, 3-[4-(3,5-Dihydroxy-benzoylamino)-butyrylamino]-benzoic acid] were 40.7 % inhib, 3.0 % inhib and 18.7 % inhib.
For `O=C(CCCNC(=O)c1cc(O)cc(O)c1)NCc1ccc(C(=O)O)cc1` [Compound 39], in that order: 24.8 % inhib, 2.9 % inhib and 10.9 % inhib.
As for `O=C(O)Cc1cccc(NC(=O)CCCNC(=O)c2cc(O)cc(O)c2)c1` [Compound 34], the “E-Selectin [% inhib.]” value in assay [1] is 41.0 % inhib. Besides, the “P-Selectin [% inhib.]” value in assay [2] came out at 12.9 % inhib. For the same compound, in assay [3], the “L-Selectin [% inhib.]” value is 18.1 % inhib.
